The values below come from US9453026B2, “ACC inhibitors and uses thereof” (Gilead Apollo, Inc., priority 2011, dated 2016).

In the experiment the target is ACC2 (Homo sapiens, UniProt O00763). Put plainly: In vitro ACC2 inhibition assay (ADP-Glo). It counts as biochemical. The settings on record: read-out: ACC2. Summed up: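 Enzyme (human ACC1 or ACC2) and compound, serially diluted 1:3 over 11 points from a 600 uM DMSO stock, were preincubated 15 min before substrate addition.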
Sequence of ACC2 (O00763 whole entry, species assumed): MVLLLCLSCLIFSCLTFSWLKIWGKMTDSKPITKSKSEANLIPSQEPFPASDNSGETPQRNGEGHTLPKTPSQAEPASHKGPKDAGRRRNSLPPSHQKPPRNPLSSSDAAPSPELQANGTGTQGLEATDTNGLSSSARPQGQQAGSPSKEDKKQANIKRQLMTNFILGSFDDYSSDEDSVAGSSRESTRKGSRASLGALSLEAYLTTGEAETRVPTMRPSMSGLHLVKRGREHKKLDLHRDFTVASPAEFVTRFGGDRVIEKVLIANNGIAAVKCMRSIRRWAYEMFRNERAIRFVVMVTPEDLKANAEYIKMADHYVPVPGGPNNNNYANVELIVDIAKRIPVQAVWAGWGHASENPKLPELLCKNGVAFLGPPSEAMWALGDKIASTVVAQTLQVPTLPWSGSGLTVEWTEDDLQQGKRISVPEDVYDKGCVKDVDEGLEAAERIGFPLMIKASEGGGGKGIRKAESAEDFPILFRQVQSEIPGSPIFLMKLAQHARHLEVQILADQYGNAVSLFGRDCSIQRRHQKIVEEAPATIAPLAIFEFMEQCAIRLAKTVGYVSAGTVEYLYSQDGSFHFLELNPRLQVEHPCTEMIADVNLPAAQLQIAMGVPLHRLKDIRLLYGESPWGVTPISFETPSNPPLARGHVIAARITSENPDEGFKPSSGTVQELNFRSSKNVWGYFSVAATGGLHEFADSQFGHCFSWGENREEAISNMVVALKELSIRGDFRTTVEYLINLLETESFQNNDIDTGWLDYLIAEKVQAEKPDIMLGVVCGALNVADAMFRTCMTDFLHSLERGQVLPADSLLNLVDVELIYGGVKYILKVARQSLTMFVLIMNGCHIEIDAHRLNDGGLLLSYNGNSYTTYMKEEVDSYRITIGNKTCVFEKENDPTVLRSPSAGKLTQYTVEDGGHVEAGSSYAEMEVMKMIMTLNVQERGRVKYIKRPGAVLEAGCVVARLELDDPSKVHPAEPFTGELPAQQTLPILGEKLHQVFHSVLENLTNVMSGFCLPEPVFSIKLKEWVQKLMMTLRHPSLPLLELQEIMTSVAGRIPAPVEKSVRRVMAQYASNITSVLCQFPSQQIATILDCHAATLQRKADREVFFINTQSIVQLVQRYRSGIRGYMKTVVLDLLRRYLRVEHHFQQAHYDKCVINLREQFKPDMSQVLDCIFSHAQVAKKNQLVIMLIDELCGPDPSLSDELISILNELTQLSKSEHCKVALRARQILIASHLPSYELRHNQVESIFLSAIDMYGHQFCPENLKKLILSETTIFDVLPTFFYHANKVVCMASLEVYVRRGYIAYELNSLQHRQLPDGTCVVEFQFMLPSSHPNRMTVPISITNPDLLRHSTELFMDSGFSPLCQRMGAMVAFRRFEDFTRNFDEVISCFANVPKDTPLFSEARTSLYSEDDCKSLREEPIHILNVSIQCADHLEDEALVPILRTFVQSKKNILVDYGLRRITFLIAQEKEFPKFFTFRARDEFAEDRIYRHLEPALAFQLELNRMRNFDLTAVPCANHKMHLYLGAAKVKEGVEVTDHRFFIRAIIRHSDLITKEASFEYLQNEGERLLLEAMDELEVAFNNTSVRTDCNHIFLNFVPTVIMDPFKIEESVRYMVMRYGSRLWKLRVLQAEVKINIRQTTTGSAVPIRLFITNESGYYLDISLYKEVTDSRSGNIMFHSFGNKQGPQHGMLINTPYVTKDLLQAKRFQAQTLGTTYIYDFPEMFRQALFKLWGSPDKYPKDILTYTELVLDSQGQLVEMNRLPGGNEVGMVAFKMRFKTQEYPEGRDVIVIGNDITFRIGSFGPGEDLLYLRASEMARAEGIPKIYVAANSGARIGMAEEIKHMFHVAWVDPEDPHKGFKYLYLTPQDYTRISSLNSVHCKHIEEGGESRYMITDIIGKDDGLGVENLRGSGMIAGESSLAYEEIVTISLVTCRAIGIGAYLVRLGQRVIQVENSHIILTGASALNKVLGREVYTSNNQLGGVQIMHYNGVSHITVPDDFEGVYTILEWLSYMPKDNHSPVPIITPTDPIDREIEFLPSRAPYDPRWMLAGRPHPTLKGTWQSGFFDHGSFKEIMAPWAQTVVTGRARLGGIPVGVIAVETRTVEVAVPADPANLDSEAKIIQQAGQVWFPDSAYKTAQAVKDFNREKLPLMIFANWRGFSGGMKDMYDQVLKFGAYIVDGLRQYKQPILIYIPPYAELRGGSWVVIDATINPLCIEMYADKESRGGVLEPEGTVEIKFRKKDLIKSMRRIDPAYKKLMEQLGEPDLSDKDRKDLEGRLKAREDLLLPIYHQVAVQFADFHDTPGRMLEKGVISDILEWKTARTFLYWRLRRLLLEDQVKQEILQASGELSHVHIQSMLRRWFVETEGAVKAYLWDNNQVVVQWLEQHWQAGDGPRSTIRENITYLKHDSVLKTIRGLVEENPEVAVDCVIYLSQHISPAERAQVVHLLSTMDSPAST

`Cc1c(-c2ncco2)sc2c1c(=O)n(Cc1nn[nH]n1)c(=O)n2C[C@H](OC(C)C)c1ccccc1` [I-153, 5-methyl-6-(1,3-oxazol-2-yl)-1-[(2R)-2-phenyl-2-(propan-2-yloxy)ethyl]-3-(1H-1,2,3,4-tetrazol-5-ylmethyl)-1H,2H,3H,4H-thieno[2,3-d]pyrimidine-2,4-dione]: the IC50 was under 1000 nM.

For the compound `Cc1c(-c2ncco2)sc2c1c(=O)n(C(C)(C)C#N)c(=O)n2C[C@H](OC(C)C)c1ccccc1` [I-154, 2-methyl-2-[5-methyl-6-(1,3-oxazol-2-yl)-2,4-dioxo-1-[(2R)-2-phenyl-2-(propan-2-yloxy)ethyl]-1H,2H,3H,4H-thieno[2,3-d]pyrimidin-3-yl]propanenitrile], the IC50 is under 1000 nM.

Consider `Cc1c(-c2ncco2)sc2c1c(=O)n(C(C)(C)C(=O)O)c(=O)n2C[C@H](OC1CCC(F)(F)CC1)c1ccccc1` [I-155, 2-[1-[(2R)-2-[(4,4-difluorocyclohexyl)oxy]-2-phenylethyl]-5-methyl-6-(1,3-oxazol-2-yl)-2,4-dioxo-1H,2H,3H,4H-thieno[2,3-d]pyrimidin-3-yl]-2-methylpropanoic acid], for which the IC50 was under 1000 nM.

Consider `Cc1c(-c2ncc(Cl)o2)sc2c1c(=O)n(C(C)(C)C(=O)O)c(=O)n2C[C@H](OC(C)C)c1ccccc1` [I-156, 2-[6-(5-chloro-1,3-oxazol-2-yl)-5-methyl-2,4-dioxo-1-[(2R)-2-phenyl-2-(propan-2-yloxy)ethyl]-1H,2H,3H,4H-thieno[2,3-d]pyrimidin-3-yl]-2-methylpropanoic acid], for which the IC50 is under 5000 nM.

As for `Cc1c(-n2cncn2)sc2c1c(=O)n(C(C)(C)C(=O)O)c(=O)n2C[C@H](OC(C)C)c1ccccc1` [I-157, 2-methyl-2-[5-methyl-2,4-dioxo-1-[(2R)-2-phenyl-2-(propan-2-yloxy)ethyl]-6-(1H-1,2,4-triazol-1-yl)-1H,2H,3H,4H-thieno[2,3-d]pyrimidin-3-yl]propanoic acid], the IC50 lay within 20000 to 50000 nM.

As for `Cc1c(-c2ncco2)sc2c1c(=O)n(C(C)(C)C(=O)O)c(=O)n2C[C@@H](Oc1ccc(-n2ccnc2)cc1)c1ccccc1` [I-161, 2-[1-[(2S)-2-[4-(1H-Imidazol-1-yl)phenoxy]-2-phenylethyl]-5-methyl-6-(1,3-oxazol-2-yl)-2,4-dioxo-1H,2H,3H,4H-thieno[2,3-d]pyrimidin-3-yl]-2-methylpropanoic acid], the IC50 is under 5000 nM.

In the case of `Cc1c(-c2ncco2)sc2c1c(=O)n(C(C)(C)C(=O)O)c(=O)n2C[C@H](O[C@H]1CC[C@H](N)CC1)c1ccccc1` [I-166, 2-(1-((R)-2-(((1r,4R)-4-aminocyclohexyl)oxy)-2-phenylethyl)-5-methyl-6-(oxazol-2-yl)-2,4-dioxo-1,2-dihydrothieno[2,3-d]pyrimidin-3(4H)-yl)-2-methylpropanoic acid], the IC50 was under 1000 nM.

For `Cc1c(-c2ncco2)sc2c1c(=O)n(C(C)(C)C(=O)O)c(=O)n2C[C@H](O[C@H]1CC[C@@H](N)CC1)c1ccccc1` [I-167, 2-(1-((R)-2-(((1s,4S)-4-aminocyclohexyl)oxy)-2-phenylethyl)-5-methyl-6-(oxazol-2-yl)-2,4-dioxo-1,2-dihydrothieno[2,3-d]pyrimidin-3(4H)-yl)-2-methylpropanoic acid], the IC50 was under 5000 nM.

For `Cc1c(-c2ncco2)sc2c1c(=O)n(C(C)(C)C(=O)O)c(=O)n2C[C@H](O[C@H]1CC[C@@](C)(O)CC1)c1ccccc1` [I-168, 2-(1-((R)-2-(((1s,4S)-4-hydroxy-4-methylcyclohexyl)oxy)-2-phenylethyl)-5-methyl-6-(oxazol-2-yl)-2,4-doxo-1,2-dihydrothieno[2,3-d]pyrimidin-3(4H)-yl)-2-methylpropanoic acid], the IC50 is under 1000 nM.

Take `Cc1c(-c2ncco2)sc2c1c(=O)n(C(C)(C)C(=O)O)c(=O)n2C[C@H](OCCO)c1ccccc1` [I-169, 2-[1-[(2R)-2-(2-hydroxyethoxy)-2-phenylethyl]-5-methyl-6-(1,3-oxazol-2-yl)-2,4-dioxo-1H,2H,3H,4H-thieno[2,3-d]pyrimidin-3-yl]-2-methylpropanoic acid]: the IC50 is under 100 nM.

As to `Cc1c(-c2ncco2)sc2c1c(=O)n(C(C)(C)C(=O)O)c(=O)n2C[C@H](OC[C@H](C)CO)c1ccccc1` [I-170, 2-(1-((R)-2-((R)-3-hydroxy-2-methylpropoxy)-2-phenylethyl)-5-methyl-6-(oxazol-2-yl)-2,4-dioxo-1,2-dihydrotheno[2,3-d]pyrimidin-3(4H)-yl)-2-methylpropanoic acid], the IC50 is under 1000 nM.

Regarding `Cc1c(-c2ncco2)sc2c1c(=O)n(C(C)(C)C(=O)O)c(=O)n2C[C@H](OC[C@@H](C)CO)c1ccccc1` [I-171, 2-(1-((R)-2-((S)-3-hydroxy-2-methylpropoxy)-2-phenylethyl)-5-methyl-6-(oxazol-2-yl)-2,4-dioxo-1,2-dihydrothieno[2,3-d]pyrimidin-3(4H)-yl)-2-methylpropanoic acid], the IC50 is under 1000 nM.

For the compound `Cc1c(-c2ncco2)sc2c1c(=O)n(C(C)(C)C(=O)O)c(=O)n2C[C@H](O[C@H]1CCC[C@H](O)C1)c1ccccc1` [I-172, 2-(1-((R)-2-(((1S,3S)-3-hydroxycyclohexyl)oxy)-2-phenylethyl)-5-methyl-6-(oxazol-2-yl)-2,4-dioxo-1,2-dihydrothieno[2,3-d]pyrimidin-3(4H)-yl)-2-methylpropanoic acid], the IC50 is under 1000 nM.

With `Cc1c(-c2ncco2)sc2c1c(=O)n(C(C)(C)C(=O)O)c(=O)n2C[C@H](O[C@H]1CCC[C@@H](O)C1)c1ccccc1` [I-173, 2-(1-((R)-2-(((1S,3R)-3-hydroxycyclohexyl)oxy)-2-phenylethyl)-5-methyl-6-(oxazol-2-yl)-2,4-dioxo-1,2-dihydrothieno[2,3-d]pyrimidin-3(4H)-yl)-2-methylpropanoic acid], the IC50 was under 1000 nM.

In the case of `Cc1c(-c2ncco2)sc2c1c(=O)n(C(C)(C)C(=O)O)c(=O)n2C[C@H](OCC(C)(C)O)c1ccccc1` [I-175, 2-[1-[(2R)-2-(2-hydroxy-2-methylpropoxy)-2-phenylethyl]-5-methyl-6-(1,3-oxazol-2-yl)-2,4-dioxo-1H,2H,3H,4H-thieno[2,3-d]pyrimidin-3-yl]-2-methylpropanoic acid], the IC50 is under 1000 nM.

Take `Cc1c(-c2ncco2)sc2c1c(=O)n(C(C)(C)C(=O)O)c(=O)n2CCC1CCCCC1` [I-176, 2-[1-(2-cyclohexylethyl)-5-methyl-6-(1,3-oxazol-2-yl)-2,4-dioxo-1H,2H,3H,4H-thieno[2,3-d]pyrimidin-3-yl]-2-methylpropanoic acid]: the IC50 was under 5000 nM.

With `Cc1c(-c2ncco2)sc2c1c(=O)n(C(C)(C)C(=O)O)c(=O)n2C[C@H](OC[C@H](C)O)c1ccccc1` [I-178, 2-[1-[(2R)-2-[(2S)-2-hydroxypropoxy]-2-phenylethyl]-5-methyl-6-(1,3-oxazol-2-yl)-2,4-dioxo-1H,2H,3H,4H-thieno[2,3-d]pyrimidin-3-yl]-2-methylpropanoic acid], the IC50 was under 5000 nM.

`Cc1c(-c2ncco2)sc2c1c(=O)n(C(C)(C)C(=O)O)c(=O)n2C[C@H](OC1COC1)c1ccccc1` [I-182, 2-methyl-2-[5-methyl-6-(1,3-oxazol-2-yl)-1-[(2R)-2-(oxetan-3-yloxy)-2-phenylethyl]-2,4-dioxo-1H,2H,3H,4H-thieno[2,3-d]pyrimidin-3-yl]propanoic acid]: the IC50 was 20000 to 50000 nM.
